Assay results published in PubChem BioAssay (NCI).
Where “and” joins values, the source holds several entries; their conditions need not be identical. Equal entries are not always repeated.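 Each compound was tested at five concentrations against cells in 96-well plates for 48 hours. GI50 is the concentration that inhibits growth by half. At the TGI there is no net growth.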

How the values were obtained:
Experiment in all cases: NCI tumour cell line growth inhibition, 48 h
[1] = test system: NCI-H460 lung
[2] = test system: RXF 393 renal
[3] = test system: MALME-3M melanoma
[4] = test system: HT29 colon
[5] = test system: SNB-19 CNS
[6] = test system: PC-3 prostate
[7] = test system: COLO 205 colon
[8] = test system: SR leukemia
[9] = test system: HL-60(TB) leukemia
[10] = test system: NCI-H522 lung

SMILES | TGI [1] [µM] | TGI [2] [µM] | TGI [3] [µM] | TGI [4] [µM] | TGI [5] [µM] | TGI [6] [µM] | TGI [7] [µM] | TGI [8] [µM] | TGI [9] | TGI [10] [µM] | GI50 [1] [µM] | GI50 [2] [µM] | GI50 [3] [µM] | GI50 [4] [µM] | GI50 [5] [µM] | GI50 [6] [µM] | GI50 [7] [µM] | GI50 [8] [µM] | GI50 [9] [µM] | GI50 [10] [µM]
CCOC(=O)/C(=C\c1cccc(C)c1)C(C)=O | 51.6 | 24.9 | 31.4 | > 100 | 36.7 | 28.3 | 41 | 84.5 | 32.2 µM | 22.8 | – | – | – | – | – | – | – | – | – | –
CCC(c1ccccc1)c1noc(CCN(CC)CC)n1 (stereo unspecified) | > 87.8 | 29 | > 100 | 81.3 | > 100 | > 100 | 34.5 | > 100 | 54.5 µM | 9.09 | > 52.3 | 14.8 | 30.2 | 27.2 | > 78.4 | 49.6 | 17.5 | 37.5 | 18.1 | 2.98
CC(C)[C@@H]1CC[C@]2(CO2)[C@@H]2C(=O)OCC(C(=O)O)=C[C@H]21 | > 100 | 1.37 | 5.31 | > 33.9 | > 27.1 | > 100 | > 57.7 | 4.24 | 1.7 µM | 0.155 | 0.402 | 0.3 | 0.305 | 0.352 | 0.379 | 0.677 | 0.657 | 0.552 | 0.328 | 0.0462
CCCCCCCCCCCC[C@@H](O)[C@H]1CC[C@H]([C@H](O)CC[C@H](O)[C@@H]2CC[C@@H](CCCCCCCC3=C[C@H](C)OC3=O)O2)O1 | > 50 | > 50 | > 50 | > 50 | > 50 | > 50 | > 50 | > 50 | 5.85 µM and > 50 µM | > 50 | > 50 | – | – | – | 9.69 | 3.3 | 8.16 | > 50 | > 50 | –
Cc1cnc(C(=O)NNc2nc3sc4c(c3c(=O)[nH]2)C(C)CCC4)cn1 (stereo unspecified) | 12.9 | 8.2 | 12.2 | > 100 | > 100 | 66.6 | 13.4 | 29.2 | 4.89 µM | > 100 | 0.545 | 1.76 | 1.72 | 1.61 | 1.29 | 2.08 | 2.03 | 0.484 | 2.04 | 2.97
Cn1c(=O)c2nc3sc4c(n3c2n(C)c1=O)C(=O)c1ccccc1C4=O | > 95.4 | > 55.3 | > 100 | > 56.2 | > 66 | > 76.1 | > 100 | > 73 | 45.3 µM | 27.9 | – | – | – | – | – | – | – | – | – | –
C=CCN(CC=C)C(=O)c1cc(C)nc2c1c(=O)n(-c1ccccc1)c(=O)n2CCCN1CCN(c2ccccc2OC)CC1 | > 50 | > 50 | > 50 | > 50 | > 50 | > 50 | > 50 | > 50 | > 50 µM | > 50 | > 50 | > 50 | > 50 | > 50 | > 50 | > 50 | > 50 | > 50 | > 50 | > 50
Cc1cc(Cl)nc(N(CCNc2ccnc3cc(Cl)ccc23)Cc2ccco2)n1 | 3.94 | 2.89 | 3.57 | 6.83 | 16.2 | 5.49 | 3.23 | 4.39 | 3.59 µM | 3.61 | 1.84 | 1.24 | 1.96 | 2.11 | 3.54 | 2.03 | 1.64 | 1.81 | 1.65 | 1.76
CSc1nc2nc(-c3ccccc3)c(C)c-2c2n1C(C)C(=O)N2 (stereo unspecified) | > 100 | > 100 | > 100 | > 100 | > 100 | > 100 | > 100 | > 100 | > 100 µM | > 100 | 32.4 | 30.6 | 43.1 | 33.7 | 38.5 | 31.3 | 41.4 | 39.3 | 36.4 | 38.1
CC(C)Cc1ccc(C(C)/C=C2\CCC(CN(C)C)C2=O)cc1 (stereo unspecified) | 45.8 | 35.1 | 32.2 | 31.5 | 26.3 | 22.4 | 32.1 | 9.41 | 26.7 µM | 15.2 | – | – | – | – | – | – | – | – | – | –
CCCCCC(=O)O[C@]1(C(C)=O)CCC2C3CCC4=CC(=O)CC[C@]4(C)C3CC[C@@]21C (stereo partly specified) | 8.59 | 4.47 | 6.05 | 7.88 | > 64.8 | 8.52 | 4.04 | 6.5 | 4.7 µM | 5.63 | 2.31 | 1.81 | 2.18 | 2.59 | 3.27 | 1.64 | 2.13 | 2.14 | 2.25 | 1.88
CCO/C=C1\SC(=S)N(c2ccc(OCC)cc2)C1=O | > 100 | > 100 | > 100 | > 100 | > 100 | > 100 | > 100 | > 100 | > 100 µM | > 100 | – | – | – | – | – | – | – | – | – | –
CCCCS(=O)c1sc2nc(-c3cccs3)cc(-c3ccccc3)c2c1N (stereo unspecified) | > 96.8 | 58 | 75.4 | > 100 | > 100 | > 86.6 | 56.6 | > 68 | > 85.5 µM | > 87.8 | 13 | 10.6 | 26.1 | 20.6 | 18.7 | 3.45 | 16.9 | 6.46 | 14.5 | 17.3
O=C(Nc1ccc(OC(F)(F)Cl)cc1)c1cnc(N2CC[C@@H](O)C2)c(-c2ccn[nH]2)c1 | 25.4 | 35.6 | 26 | 12.1 | 28.2 | 48.4 | 19.7 | 50.9 | 54 µM | 31.6 | 10.1 | 15.8 | 12.5 | 3.12 | 12.9 | 16.3 | 5.58 | 10.8 | 22.3 | 12.6
